Assay results as given in patent publication US12403111B2, “Compositions and methods for treating neurodevelopmental disorders” (SynGAP Research Fund, priority 2024, dated 2025).
“Also recorded” adds a separate entry of the source.

Columns and labels:
[1] = target: mTORC1 (Homo sapiens, UniProt P42345); conditions: cited from earlier work
[2] = tested on: raskol Drosophila eye phenotype; test: Eye phenotype recovery assay (eye size) over several drug concentrations, SYNGAP1 (raskol) knockdown flies; format: in vivo, Drosophila melanogaster; conditions: for Effect on eye phenotype recovery (eye size): Example 38, multiple drug dilutions vs control
From the text: Increased eye size over control (dark grey) indicates improved phenotype. […]
FIG. 42B depicts the eye size effect of NADL, L-Leucine and beta-hydroxyisovaleric acid on raskol Drosophila eye phenotype over multiple drug dilutions from Example 38.
A prioritized list of top hits was developed to further validate. Priority was place on actionable, safe, and biologically relevant drugs. To validate a top hit, the effect of each drug was tested over three doses. Three concentrations (1, 5, and 25 uM) were compared to a no drug control.

[3] = tested on: mice with experimental traumatic brain injury; conditions: cited from earlier work
[4] = tested on: raskol Drosophila eye phenotype; test: Drug screen (Prestwick Chemical Library) for rescue of degenerate eye in Drosophila model of SYNGAP1; format: in vivo, Drosophila melanogaster; conditions: screen of over 1520 drugs; Z scores >1 indicated improved phenotype
From the text: The invention is also directed in part to a Drosophila melanogaster (fruit fly) model of SYNGAP1. The model is based on eye-specific RNAi knockdown of SYNGAP1, which is called raskol gene in flies. RNAi knockdown of the raskol gene in the eye of Drosophila results in a smaller, degenerate eye (FIG. 1). In one embodiment, the model is used to screen drug that rescue the degenerate eye phenotype in Drosophila melanogaster.
FIG. 7 is a graph of the Z-score of chemical effects on raskol Drosophila eye phenotype. Z scores >1 indicated improved phenotype; Z scores <1 indicated worsened phenotype. The arrow indicates the Z-score positioning of N-Acetyl-L-leucine (NALL).
Drosophila (fruit fly) model of SYNGAP1 was generated. This model is partial loss of function of SYNGAP1, similar to what is observed in humans.
To generate the model, fruit flies were engineered to eliminate SYNGAP1 gene expression in the eye. In flies, the gene is called raskol but herein referred to as SYNGAP1 for clarity. Eye-specific knockdown of SYNGAP1 using RNAi was used. RNAi knockdown of SYNGAP in the eye results in a smaller, disorganized and degenerate eye (FIG. 5).
The model allows for ascertaining therapeutic efficacy of a compound. The efficacy is evidenced by restoration of normal eye appearance upon treatment with the compound. […]

[5] = tested on: raskol Drosophila; test: Induced seizures in raskol Drosophila; format: in vivo, Drosophila melanogaster; conditions: compared to untreated or NADL treated raskol Drosophila
From the text: In addition to the degenerate eye phenotype, raskol Drosophila are prone to induced seizures, as compared to wild type Drosophila.

[6] = tested on: tyrosine catabolic process; test: RNAseq of untreated vs NALL-treated raskol Drosophila; format: in vivo, Drosophila melanogaster; conditions: NALL-treated vs untreated raskol flies; TAT, HPD, FAA
Experimental: Enzymes TAT, HPD, FAA highlight the differences in RNA expression in the presence of NALL treatment; molecules are all associated with the tyrosine catabolic process.
Finally, RNAseq was performed to compare gene regulation differences between raskol Drosophila untreated and NALL-treated flies.

[7] = target: LAT1 (Homo sapiens, UniProt Q01650); conditions: cited from earlier work
Chain of LAT1 (Q01650 whole entry, species assumed): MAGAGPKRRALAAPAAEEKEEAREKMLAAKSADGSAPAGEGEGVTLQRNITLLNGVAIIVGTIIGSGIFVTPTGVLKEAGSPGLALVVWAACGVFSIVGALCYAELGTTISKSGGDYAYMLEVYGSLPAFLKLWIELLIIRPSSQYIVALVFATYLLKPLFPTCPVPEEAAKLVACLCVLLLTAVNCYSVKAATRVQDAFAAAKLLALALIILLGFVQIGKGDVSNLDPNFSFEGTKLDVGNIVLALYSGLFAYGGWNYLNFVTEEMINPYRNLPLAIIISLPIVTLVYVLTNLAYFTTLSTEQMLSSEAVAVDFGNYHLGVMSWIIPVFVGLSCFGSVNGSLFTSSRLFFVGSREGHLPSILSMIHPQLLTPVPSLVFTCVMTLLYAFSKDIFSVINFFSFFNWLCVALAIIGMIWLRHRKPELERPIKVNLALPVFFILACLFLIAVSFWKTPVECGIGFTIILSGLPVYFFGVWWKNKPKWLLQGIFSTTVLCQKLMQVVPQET
Chain of LAT1 (P08195 102-630 partner, species assumed): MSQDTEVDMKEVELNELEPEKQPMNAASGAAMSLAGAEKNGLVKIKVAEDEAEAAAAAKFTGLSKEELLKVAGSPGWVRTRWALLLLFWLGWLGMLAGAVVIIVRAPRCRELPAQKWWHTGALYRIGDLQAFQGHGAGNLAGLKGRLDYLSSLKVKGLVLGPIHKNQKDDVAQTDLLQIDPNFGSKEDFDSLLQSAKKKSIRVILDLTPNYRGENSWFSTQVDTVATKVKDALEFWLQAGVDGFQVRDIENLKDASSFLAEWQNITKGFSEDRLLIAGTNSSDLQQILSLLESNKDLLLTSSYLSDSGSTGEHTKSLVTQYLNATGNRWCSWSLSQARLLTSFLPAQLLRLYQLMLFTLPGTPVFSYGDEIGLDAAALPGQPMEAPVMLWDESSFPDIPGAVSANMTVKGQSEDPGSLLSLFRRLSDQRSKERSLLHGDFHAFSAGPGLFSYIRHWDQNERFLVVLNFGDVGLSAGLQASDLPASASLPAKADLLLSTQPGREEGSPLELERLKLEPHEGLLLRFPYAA

[8] = tested on: animals following unilateral labyrinthectomy; conditions: only minor effects on normal vestibular function; cited from earlier work
[9] = tested on: patients with cerebellar ataxia; conditions: 12 out of 20 individuals; cited from earlier work

Q: Which “Effect on mTORC1” value [1] does the source give for `CC(C)C[C@H](N)C(=O)O` [L-Leucine] here?
A: activates

Q: And the “Effect on eye phenotype recovery (eye size)” value (“Effect … (eye size)” below) [2]?
A: do not have a significant effect; also recorded: neither NADL nor L-Leucine have a significant effect

Q: For `CC(=O)N[C@H](CC(C)C)C(=O)O` [NADL, N-acetyl-D-leucine], which “Effect … (eye size)” value [2] is on record?
A: do not have a significant effect; also recorded: neither NADL nor L-Leucine have a significant effect

Q: For `CC(=O)N[C@@H](CC(C)C)C(=O)O` [NALL, N-acetyl-L-leucine], which “Autophagy in cortical tissue” value ([3]; reduced accumulation of autophagosome markers vs controls) is on record?
A: increase in autophagy

Q: And the “Motor and cognitive outcomes” value ([3]; treated mice vs controls)?
A: significant improvement in motor and cognitive outcomes

Q: What about the “Effect on mTORC1” value [1] of the same compound?
A: inhibit or negatively regulate

Q: What about the “Effect … (eye size)” value [2] of the same compound?
A: significant effect on phenotype recovery, as was observed with NALL

Q: And the “Eye phenotype in validation of top hit” value ([2]; three concentrations (1, 5, and 25 uM) vs no drug control)?
A: larger, more organized, less degenerate eye

Q: What about the “Z-score of chemical effects on raskol Drosophila eye phenotype” value [4] of the same compound?
A: 1.35

Q: What about the “Recovery time after induced seizures” value [5] of the same compound?
A: faster recovery time

Q: And the “Gene regulation differences by RNAseq” value [6]?
A: Down regulated genes were enriched for tyrosine catabolic processes

Q: What about the “Binding or blocking of LAT1” value [7] of the same compound?
A: neither binds nor blocks

Q: What does the source list for `CC(=O)N[C@@H](CC(C)C)C(=O)O` [acetyl-leucine]?
A: Vestibular compensation [8]: accelerate vestibular compensation; Individuals with significant improvements in ataxia [9]: 60%

Q: Which “Effect … (eye size)” value [2] does the source give for `CC(C)(O)CC(=O)O` [beta-hydroxyisovaleric acid, Beta-hydroxyisovaleric acid] here?
A: do not have a significant effect
